Results as given in patent US11174264B2, “TYK2 inhibitors and uses thereof” (Nimbus Lakshmi, Inc., priority 2019, dated 2021).

Columns and labels:
[1] = molecular target: human TYK2 (JH2domain-pseudokinase) (Homo sapiens (Human), UniProt P29597); experiment: TYK2 JH2 Domain Binding Assay (KINOMEscan); conditions: read-out: hTYK2_JH2_Binding (Kd)
Experimental: Binding constants for compounds of the present invention against the JH2 domain were determined by the following protocol for a KINOMEscan® assay (DiscoveRx). A fusion protein of a partial length construct of human TYK2 (JH2domain-pseudokinase) (amino acids G556 to D888 based on reference sequence NP_003322.3) and the DNA binding domain of NFkB was expressed in transiently transfected HEK293 cells. From these HEK 293 cells, extracts were prepared in M-PER extraction buffer (Pierce) in the presence of Protease Inhibitor Cocktail Complete (Roche) and Phosphatase Inhibitor Cocktail Set II (Merck) per manufacturers' instructions. The TYK2 (JH2domain-pseudokinase) fusion protein was labeled with a chimeric double-stranded DNA tag containing the NFkB binding site (5′-[…]-3′) fused to an amplicon for qPCR readout, which was added directly to the expression extract (the final concentration of DNA-tag in the binding reaction is 0.1 nM).
The liganded beads were blocked with excess biotin and washed with blocking buffer (SeaBlock (Pierce), 1% BSA, 0.05% Tween 20, 1 mM DTT) to remove unbound ligand and to reduce nonspecific binding.
Extracts were used directly in binding assays without any enzyme purification steps at a ≥10,000-fold overall stock dilution (final DNA-tagged enzyme concentration <0.1 nM). Extracts were loaded with DNA-tag and diluted into the binding reaction in a two step process. First extracts were diluted 1:100 in 1× binding buffer (PBS/0.05% Tween 20/10 mM DTT/0.1% BSA/2 μg/ml sonicated salmon sperm DNA) containing 10 nM DNA-tag. This dilution was allowed to equilibrate at room temperature for 15 minutes and then subsequently diluted 1:100 in 1× binding buffer. […] Kds were determined using an 11-point 3-fold compound dilution series with three DMSO control points. […] The compounds were then diluted directly into the assays such that the final concentration of DMSO was 0.9%. All reactions performed in polypropylene 384-well plates. Each was a final volume of 0.02 mL. Assays were incubated with shaking for 1 hour at room temperature. Then the beads were pelleted and washed with wash buffer (1×PBS, 0.05% Tween 20) to remove displaced kinase and test compound. […] The qPCR protocol consisted of a 10 minute hot start at 95° C., followed by 35 cycles of 95° C. for 15 seconds, 60° C. for 1 minute.
The compounds were then diluted directly into the assays such that the final concentration of DMSO was 0.9%. […] Kd measurements were performed in duplicate.
Binding constants (Kd values) were calculated with a standard dose-response curve using the Hill equation: […]
The Hill Slope was set to −1.

Tyk2 kinase domain (JH1) = Tyk2 kinase domain (JH1) (Homo sapiens (Human), UniProt P29597); experiment: Tyk2 Radioactive Kinase Assay; format: biochemical; conditions: 10 μM compound, ATP at 10 μM; read-out: TYK2_IC50_RB (% INH_@_10 uM) at 10.0 uM [% INH]
Experimental: (§1) The Tyk2 and JAK2 radioactive kinase assay measures the percent inhibition at the Tyk2 kinase domain (JH1) and the percent inhibition at the JAK2 kinase domain (JH1). Results of the assay are expressed as percent inhibition at 10 μM.

JAK2 kinase domain (JH1) = JAK2 kinase domain (JH1) (Homo sapiens (Human), UniProt O60674); experiment: JAK2 Radioactive Kinase Assay; format: biochemical; conditions: 10 μM compound, ATP at 10 μM; read-out: JAK2_IC50_RB (% INH_@_10 uM) at 10.0 uM [% INH]
Experimental: as §1

JAK1 kinase domain = JAK1 kinase domain (Homo sapiens (Human), UniProt P23458); experiment: JAK1 Radioactive Kinase Assay; format: biochemical; conditions: 10 μM compound; read-out: JAK1_IC50_RB (% INH_@_10 uM) at 10.0 uM [% INH]
Description: (§2) Similar assays were run to measure the percent inhibition at the JAK1 and JAK3 kinase domains.

JAK3 kinase domain = JAK3 kinase domain (Homo sapiens (Human), UniProt P52333); experiment: JAK3 Radioactive Kinase Assay; format: biochemical; conditions: 10 μM compound; read-out: JAK3_IC50_RB (% INH_@_10 uM) at 10.0 uM [% INH]
Description: as §2

[2] = system: IL-12 induced STAT4 phophorylation mediated by Tyk2/JAK2 (heterodimeric complex); experiment: IL-12 Induced pSTAT4 in Human PBMC; format: cell-based; conditions: for inhibition at 0.05 µM: Homo sapiens, PBMC, 0.05 μM compound, 1.7 ng/mL IL-12, read-out: PBMC_IL-12-pSTAT4 (% Inhibition_Average_@0.05 uM) [%]; for IC50: 1.7 ng/mL IL-12, read-out: PBMC_IL-12-pSTAT4 (IC50)
Experimental: Human PBMC are isolated from buffy coat and are stored frozen for assays as needed. […] 15 μl of compound or DMSO is added to the well at the desired concentrations and incubated at 1 hr at 37° C. 15 μl of stimulus (final concentration of 1.7 ng/mL IL-12) is added for 30 minutes prior to pSTAT4 and total STAT4 analysis using cell lysates prepared and analyzed by MSD reagents as per manufacturer protocol. The final DMSO concentration of compound in the assay is 0.1%.
The IL-12 Induced pSTAT4 assay evaluates the inhibition of IL-12 induced STAT4 phophorylation mediated by Tyk2/JAK2 (heterodimeric complex).

Chain of Tyk2 kinase domain (JH1) (P29597 897-1176): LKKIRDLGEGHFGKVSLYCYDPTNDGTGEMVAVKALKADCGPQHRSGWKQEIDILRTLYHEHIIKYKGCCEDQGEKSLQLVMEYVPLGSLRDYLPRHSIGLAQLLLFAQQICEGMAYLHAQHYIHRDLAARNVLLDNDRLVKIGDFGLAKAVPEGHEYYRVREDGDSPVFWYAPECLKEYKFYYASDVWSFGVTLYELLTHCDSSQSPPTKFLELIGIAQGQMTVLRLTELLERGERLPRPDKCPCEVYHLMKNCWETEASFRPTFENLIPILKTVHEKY
Chain of JAK1 kinase domain (P23458 875-1153): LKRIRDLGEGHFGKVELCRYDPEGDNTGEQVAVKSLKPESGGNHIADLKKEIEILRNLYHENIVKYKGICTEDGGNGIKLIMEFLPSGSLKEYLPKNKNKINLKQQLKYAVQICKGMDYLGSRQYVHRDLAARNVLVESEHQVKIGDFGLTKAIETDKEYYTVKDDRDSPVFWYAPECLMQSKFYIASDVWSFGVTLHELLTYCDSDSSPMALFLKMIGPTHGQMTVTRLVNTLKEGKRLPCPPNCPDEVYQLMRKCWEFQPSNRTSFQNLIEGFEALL
Chain of JAK3 kinase domain (P52333 822-1111): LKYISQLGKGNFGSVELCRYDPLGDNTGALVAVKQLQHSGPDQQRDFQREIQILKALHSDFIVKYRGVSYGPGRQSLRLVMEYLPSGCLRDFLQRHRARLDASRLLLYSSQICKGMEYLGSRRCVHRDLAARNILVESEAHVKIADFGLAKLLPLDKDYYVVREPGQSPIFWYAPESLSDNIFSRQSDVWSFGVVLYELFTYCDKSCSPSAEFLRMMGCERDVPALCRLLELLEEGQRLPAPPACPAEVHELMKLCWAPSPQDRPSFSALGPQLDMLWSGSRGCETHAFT
Chain of human TYK2 (JH2domain-pseudokinase) (P29597 556-888): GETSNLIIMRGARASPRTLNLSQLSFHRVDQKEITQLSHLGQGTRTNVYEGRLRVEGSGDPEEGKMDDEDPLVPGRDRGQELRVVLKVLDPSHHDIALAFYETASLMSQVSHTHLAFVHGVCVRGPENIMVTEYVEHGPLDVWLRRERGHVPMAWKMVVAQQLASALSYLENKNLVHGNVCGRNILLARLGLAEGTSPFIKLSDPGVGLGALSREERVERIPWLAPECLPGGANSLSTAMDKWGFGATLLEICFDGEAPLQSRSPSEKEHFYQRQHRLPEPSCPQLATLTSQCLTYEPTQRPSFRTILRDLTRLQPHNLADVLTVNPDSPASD
Chain of JAK2 kinase domain (JH1) (O60674 849-1124): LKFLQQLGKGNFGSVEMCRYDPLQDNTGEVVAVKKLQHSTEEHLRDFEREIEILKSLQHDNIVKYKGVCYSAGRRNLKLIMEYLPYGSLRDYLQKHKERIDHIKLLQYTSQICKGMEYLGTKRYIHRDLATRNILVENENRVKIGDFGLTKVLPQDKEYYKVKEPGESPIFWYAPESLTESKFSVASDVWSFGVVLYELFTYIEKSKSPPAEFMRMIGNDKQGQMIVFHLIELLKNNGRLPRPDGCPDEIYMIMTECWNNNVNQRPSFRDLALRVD

Compound | Kd [1] [nM] | inhibition at 10 µM (Tyk2 kinase domain (JH1)) [%] | inhibition at 10 µM (JAK2 kinase domain (JH1)) [%] | inhibition at 10 µM (JAK1 kinase domain) [%] | inhibition at 10 µM (JAK3 kinase domain) [%] | inhibition at 0.05 µM [2] [%] | IC50 [2] [nM]
CNc1cc(Nc2cccn(-c3ccccn3)c2=O)nn2c(C(=O)NC3CC3)cnc12 [Compound I-4, N-cyclopropyl-8-(methylamino)-6-((2-oxo-2H-[1,2′-bipyridin]-3-yl)amino)imidazo[1,2-b]pyridazine-3-carboxamide] | < 0.2 | < 50 | < 50 | < 50 | < 50 | < 50 | –
CNc1cc(-c2cn(C(C)C)c3ncccc23)nn2c(C(=O)N[C@@H]3C[C@@H]3F)cnc12 [Compound I-5, N-((1R,2S)-2-fluorocyclopropyl)-6-(1-isopropyl-1H-pyrrolo[2,3-b]pyridin-3-yl)-8-(methylamino)imidazo[1,2-b]pyridazine-3-carboxamide] | < 0.2 | < 50 | < 50 | < 50 | < 50 | 70 to 90 | < 100
CNc1cc(-c2cn(CCN3CCOCC3)c3ncccc23)nn2c(C(=O)N[C@@H]3C[C@@H]3F)cnc12 [Compound I-6, N-((1R,2S)-2-fluorocyclopropyl)-8-(methylamino)-6-(1-(2-morpholinoethyl)-1H-pyrrolo[2,3-b]pyridin-3-yl)imidazo[1,2-b]pyridazine-3-carboxamide] | < 0.2 | < 50 | < 50 | < 50 | < 50 | < 50 | < 100
CNc1cc(-c2cn(C(C)C)c3ncccc23)nn2c(C(=O)N[C@H]3CC[C@H]3O)cnc12 [Compound I-10, N-((1S,2R)-2-hydroxycyclobutyl)-6-(1-isopropyl-1H-pyrrolo[2,3-b]pyridin-3-yl)-8-(methylamino)imidazo[1,2-b]pyridazine-3-carboxamide] | < 0.2 | < 50 | < 50 | < 50 | < 50 | 70 to 90 | < 100
CNc1cc(-c2cn(CCN3CCOCC3)c3ncccc23)nn2c(C(=O)N[C@H]3CC[C@H]3O)cnc12 [Compound I-12, N-((1S,2R)-2-hydroxycyclobutyl)-8-(methylamino)-6-(1-(2-morpholinoethyl)-1H-pyrrolo[2,3-b]pyridin-3-yl)imidazo[1,2-b]pyridazine-3-carboxamide] | < 0.2 | < 50 | < 50 | < 50 | < 50 | < 50 | –
